From US11319337B2, “3-desoxy derivative and pharmaceutical compositions thereof” (Intercept Pharmaceuticals, Inc., priority 2016, dated 2022)
≈ marks a conversion by molar mass, not a printed value.

Key:
Type in all cases: physicochemical
[1] = 1-octanol-water partition coefficient (LogPA-); conditions: bile acids as ionized species
Procedure: (§1) Physiochemical properties of Compound 1 such as water solubility, critical micellar concentration, surface tension, and LogPA were determined using methods known in the art.

Surface tension at CMC = conditions: in […] NaCl water solution; in mN/m (unit assumed)
Procedure: as §1

[2] = Critical micellar concentration; conditions: in […] NaCl water solution
Water solubility = conditions: BA as protonated species, hs = highly soluble, read-out: Ws (water solubility)
Procedure: as §1

Row | Structure (SMILES) | LogPA- (1-octanol-water partition coefficient) [1] | STCMC (Surface Tension at CMC) (Surface tension at CMC) | CMC (Critical Micellar Concentration) [2] | solubility (Water solubility)
1 | CC[C@H]1[C@@H](O)[C@@H]2[C@H](C[C@H](O)[C@]3(C)[C@@H]([C@H](C)C[C@H](C)C(=O)O)CC[C@@H]23)[C@@]2(C)CC[C@@H](O)C[C@@H]12 [Compound C, 6α-ethyl-23(S)-methyl-3α,7α,12α trihydroxy-5β-cholan-24-oic acid] | 1.4 | 50.1 | 2 mM | 99 mM (≈ 44.6 mg/mL)
2 | CC[C@H]1[C@@H](O)C2C3CC[C@H]([C@H](C)C[C@H](C)C(=O)O)[C@@]3(C)CCC2[C@@]2(C)CC[C@@H](O)C[C@@H]12 (stereo partly drawn) [Compound D, 6α-ethyl-23(R)-methyl chenodeoxycholic acid] | 2.9 | – | – | 15 mM (≈ 6.52 mg/mL)
3 | CC[C@H]1[C@@H](O)C2C3C[C@H](O)[C@H]([C@H](C)CCC(=O)O)[C@@]3(C)CCC2[C@@]2(C)CC[C@@H](O)C[C@@H]12 (stereo partly drawn) [Compound E] | 1.6 | 52.4 | 5.9 mM | 120 mM (≈ 52.4 mg/mL)
4 | CC[C@H]1[C@@H](O)C2C3CC[C@H]([C@H](C)CCC(=O)O)[C@@]3(C)C[C@H](O)C2[C@@]2(C)CC[C@@H](O)C[C@@H]12 (stereo partly drawn) [Compound F, 3α,7α,11β-dihydroxy-6α-ethyl-5β-cholan-24-oic acid] | 0.8 | – | – | 143 to 150 mM (≈ 62.4 to 65.5 mg/mL)
